Data published in PMC12693182, “Synthesis and QSAR Studies of Claramine Derivatives, a New Class of Broad-Spectrum Antimicrobial Agents” (Molecules, 2025).
In brackets after ≈: the same amount, converted by molar mass.

Tests used:
S. aureus 340 = assay: MIC, broth microdilution; format: cell-based, Staphylococcus aureus; details: for MIC: Staphylococcus aureus, 340, 24 h; for MIC S. aureus 340: 24 h
Description: (§1) Antimicrobial activity of the compounds was studied by determination of minimal inhibitory concentrations (MIC) according to the NCCLS guidelines M7-A2 using the microbroth dilution methods. The bacteria strains were grown on trypticase soy agar (Becton Dickinson) at 37 °C for 24 h. Inocula were prepared in TCE (tryptone 0.1%, […], wt/vol) by ajusting the turbidity at 623 nm to obtain 1–3 10^5 CFU/mL.
(§2) Antimicrobial activities of the compounds were determined by using a broth microdilution method performed in sterile 96-well microplates. All compounds were solubilized in water at a concentration of 10 mM and were transferred to each microplate well in order to obtain a two-fold serial dilution in 100 µL of broth and 100 µL of inoculum containing 2–6 10^5 CFU of each bacterium were added to each well. Some wells were reserved for positive controls and inoculum viability.

S. aureus ATCC 25923 = assay: MIC, broth microdilution; format: cell-based, Staphylococcus aureus; details: ATCC strain; for MIC: Staphylococcus aureus, ATCC25923, 24 h; for MIC S. aureus 25923: 24 h
Description: as §1, §2

S. intermedius 1051997 = assay: MIC, broth microdilution; format: cell-based, Staphylococcus intermedius; details: for MIC: Staphylococcus intermedius, 1051997, 24 h; for MIC / MIC S. intermedius 1051997: 24 h
Description: as §1, §2

E. faecalis ATCC29212 = assay: MIC, broth microdilution; format: cell-based, Enterococccus faecalis; details: ATCC strain; for MIC: Enterococcus faecalis, ATCC29212, 24 h, read-out: MIC E. faecalis 29212; for MIC E. faecalis 29212: 24 h
Description: as §1, §2

E. coli 1956 = assay: MIC, broth microdilution; format: cell-based, Escherichia coli; details: for MIC: Escherichia coli, 1956, 24 h; for MIC E. coli 1956: 24 h
Description: as §1, §2

E. coli ATCC 25922 = assay: MIC, broth microdilution; format: cell-based, Escherichia coli; details: ATCC strain; for MIC: Escherichia coli, ATCC25922, 24 h; for MIC E. coli 25922: 24 h
Description: as §1, §2

P. aeruginosa 1051575 = assay: MIC, broth microdilution; format: cell-based, Pseudomonas aeruginosa; details: for MIC: Pseudomonas aeruginosa, 1051575, 24 h; for MIC / MIC P. aeruginosa 1051575: 24 h
Description: as §1, §2

P. aeruginosa ATCC 27853 = assay: MIC, broth microdilution; format: cell-based, Pseudomonas aeruginosa; details: ATCC strain; for MIC: Pseudomonas aeruginosa, ATCC27853, 24 h; for MIC P. aeruginosa 27853: 24 h
Description: as §1, §2

[1] = test system: Chinese hamster Ovary cells (CHO-K1); assay: Cytotoxicity assay (WST-1 / Neutral Red); format: cell-based; details: 24-h incubation; for IC50: Cricetulus griseus, 24 h
Description: The cytotoxic activities of compounds were assessed on Chinese hamster Ovary cells (CHO-K1) provided from ATCC-LGC Standards Sarl (Molsheim, France). Cells were maintained in Mc Coy’s 5A (CHO) medium supplemented with 10% bovine calf serum, 2 mM glutamine, and 100 U mL^−1/10 µg mL^−1 penicillin/streptomycin mixtures. For the cytotoxicity experiments, they were seeded in 96-well plates and incubated at 37 °C in humidified atmosphere containing 5% CO2 overnight, then concentrations of compounds were incorporated in triplicate cultures. After a 24-h incubation period at 37 °C, cells were submitted to three successive washes in phosphate buffer saline (PBS) and cell viability was evaluated by two different vital dyes: • i. A first set of cell cultures was incubated in PBS containing 10% WST-1 for 30 min at 37 °C, 5% CO2. Cell viability was evaluated by the assessment of WST-1 absorbance at 450 nm in a microplate spectrophotometer. • ii. A second set of cell cultures was placed into Neutral Red medium (50 μg mL^−1 Neutral Red in complete medium) and incubated for 3 h at 37 °C, 5% CO2. Then the Neutral Red medium was removed and the distaining solution (50% ethanol, 1% acetic acid, 49% distilled water; 50 µL per well) was added into the wells. The plates were shaken for 15–20 min at room temperature in the dark. Cell viability was evaluated by the assessment of absorbance at 540 nm in a microplate spectrophotometer.
Results were expressed as percentages of cell viability about the control (culture medium-only), which corresponded to 100% cell viability. Dose-response curves were calculated by non-linear regression analysis with TableCurve 2D software (V 5.0.1) (Systat Software Inc., San Jose, CA, USA). The Inhibitory Concentration 50% (IC50) was defined as the concentration of compounds that induced a 50% decrease of viable cells.

| Molecule | MIC (S. aureus 340) [µg/mL] | MIC (S. aureus ATCC 25923) [µg/mL] | MIC (S. intermedius 1051997) [µg/mL] | MIC (E. faecalis ATCC29212) [µg/mL] | MIC (E. coli 1956) [µg/mL] | MIC (P. aeruginosa ATCC 27853) [µg/mL] | IC50 [1] [µg/mL] | MIC (P. aeruginosa 1051575) [µg/mL] | MIC E. coli 25922 (E. coli ATCC 25922) [µg/mL] | MIC P. aeruginosa 1051575 (P. aeruginosa 1051575) [µg/mL] | MIC P. aeruginosa 27853 (P. aeruginosa ATCC 27853) [µg/mL] | other results |
| --- | --- | --- | --- | --- | --- | --- | --- | --- | --- | --- | --- | --- |
| CC(C)OC(=O)CCC(C)C1CCC2C3C(O)CC4CC(NCCCNCCCNCCCN)CCC4(C)C3CCC12C (stereo not drawn) [Claramine C17] | 2 (≈ 3.31 µM) | 4 (≈ 6.61 µM) | 0.8 (≈ 1.32 µM) | 8 (≈ 13.2 µM) | 10 (≈ 16.5 µM) | 16 (≈ 26.4 µM) | > 60 | – | – | – | – | Therapeutic Ratio (TR) (S. intermedius 1051997; IC50 (CHO)/MIC, S. intermedius): 65–114; MIC (E. coli ATCC 25922): 16 µg/mL (≈ 26.4 µM); Therapeutic Ratio (TR) (P. aeruginosa 1051575; IC50 (CHO)/MIC, P. aeruginosa): > 10; IC50 CHO [1]: 85 µg/mL (≈ 141 µM) |
| COC(=O)CCC(C)C1CCC2C3C(O)CC4CC(NCCCNCCCN)CCC4(C)C3CCC12C (stereo not drawn) [Claramine C04] | 7 (≈ 13.5 µM) | – | – | – | – | – | 68 (≈ 131 µM) | 26 (≈ 50 µM) | – | – | – | – |
| COC(=O)CCC(C)C1CCC2C3C(O)CC4CC(NCCCNCCCNCCCN)CCC4(C)C3CCC12C (stereo not drawn) [Claramine D02] | – | – | – | – | – | – | – | – | 4 (≈ 6.93 µM) | 7 (≈ 12.1 µM) | 30 (≈ 52 µM) | MIC S. aureus 340 (S. aureus 340): 4 µg/mL (≈ 6.93 µM); MIC S. aureus 25923 (S. aureus ATCC 25923): 7 µg/mL (≈ 12.1 µM); MIC S. intermedius 1051997 (S. intermedius 1051997): 1 µg/mL (≈ 1.73 µM); MIC E. faecalis 29212 (E. faecalis ATCC29212): 30 µg/mL (≈ 52 µM); MIC E. coli 1956 (E. coli 1956): 60 µg/mL (≈ 104 µM); IC50 CHO [1]: 20 µg/mL (≈ 34.7 µM) |
| CC(C)OC(=O)CCC(C)C1CCC2C3C(O)CC4CC(NCCCNCCCCN)CCC4(C)C3CCC12C (stereo not drawn) [Claramine C27] | – | – | – | – | – | – | – | – | 56 (≈ 99.7 µM) | 56 (≈ 99.7 µM) | 56 (≈ 99.7 µM) | MIC S. aureus 340 (S. aureus 340): 7 µg/mL (≈ 12.5 µM); MIC S. aureus 25923 (S. aureus ATCC 25923): 7 µg/mL (≈ 12.5 µM); MIC S. intermedius 1051997 (S. intermedius 1051997): 7 µg/mL (≈ 12.5 µM); MIC E. faecalis 29212 (E. faecalis ATCC29212): 28 µg/mL (≈ 49.8 µM); MIC E. coli 1956 (E. coli 1956): 28 µg/mL (≈ 49.8 µM); IC50 CHO [1]: 100 µg/mL (≈ 178 µM) |
| CC(C)OC(=O)CCC(C)C1CCC2C3C(O)CC4CC(NCCCNCCCCN)CCC4(C)C3CCC12C (stereo not drawn) [Claramine C18] | 7 (≈ 12.5 µM) | 7 (≈ 12.5 µM) | 4 (≈ 7.12 µM) | – | 14 (≈ 24.9 µM) | – | 95 (≈ 169 µM) | – | 14 (≈ 24.9 µM) | 14 (≈ 24.9 µM) | 14 (≈ 24.9 µM) | MIC E. faecalis 29212 (E. faecalis ATCC29212): 7 µg/mL (≈ 12.5 µM) |
| CCOC(=O)CCC(C)C1CCC2C3C(O)CC4CC(NCCCNCCCCNCCCN)CCC4(C)C3CCC12C (stereo not drawn) [Claramine C21] | 4 (≈ 6.61 µM) | 4 (≈ 6.61 µM) | 4 (≈ 6.61 µM) | 2 (≈ 3.31 µM) | 30 (≈ 49.6 µM) | 15 (≈ 24.8 µM) | 45 (≈ 74.4 µM) | 15 (≈ 24.8 µM) | – | – | – | MIC (E. coli ATCC 25922): 15 µg/mL (≈ 24.8 µM) |
| CC(C)OC(=O)CCC(C)C1CCC2C3C(O)CC4CC(NCCN(CCN)CCN)CCC4(C)C3CC(O)C12C (stereo not drawn) [Claramine B19] | 14 (≈ 24.2 µM) | – | – | – | – | – | 81 (≈ 140 µM) | 58 (≈ 100 µM) | – | – | – | – |
| CC(C)OC(=O)CCC(C)C1CCC2C3C(O)CC4CC(NCCN(CCN)CCN)CCC4(C)C3CCC12C (stereo not drawn) [Claramine C25] | 14 (≈ 24.9 µM) | – | – | – | – | – | 141 (≈ 250 µM) | 28 (≈ 49.7 µM) | – | – | – | – |
| COC(=O)CCC(C)C1CCC2C3C(O)CC4CC(NCCCNCCCNCCCN)CCC4(C)C3CCC12C (stereo not drawn) [Claramine C02] | 4 (≈ 6.93 µM) | 4 (≈ 6.93 µM) | 2 (≈ 3.47 µM) | 15 (≈ 26 µM) | – | 29 (≈ 50.3 µM) | 22 (≈ 38.1 µM) | 7 (≈ 12.1 µM) | 15 (≈ 26 µM) | – | – | – |
| Colistine [reference compound] | – | – | – | – | – | – | – | – | 0.5 | 0.5 | 0.5 | MIC E. coli 1956 (E. coli 1956): 0.5 µg/mL |
| CC(CCC(=O)OCC(F)(F)F)C1CCC2C3CCC4CC(NCCCNCCCCNCCCN)CCC4(C)C3CC(O)C12C (stereo not drawn) [Claramine A24] | – | – | – | – | – | – | 76 (≈ 115 µM) | – | – | – | – | – |
| CC(C)OC(=O)CCC(C)C1CCC2C3CCC4CC(NCCCNCCCN)CCC4(C)C3CC(O)C12C (stereo not drawn) [Claramine A04] | 3 (≈ 5.48 µM) | – | – | – | – | – | 57 (≈ 104 µM) | 14 (≈ 25.6 µM) | – | – | – | – |
| CC(C)OC(=O)CCC(C)C1CCC2C3CCC4CC(NCCCNCCCCN)CCC4(C)C3CCC12C (stereo not drawn) [Claramine E03] | 7 (≈ 12.8 µM) | 3 (≈ 5.5 µM) | 2 (≈ 3.66 µM) | 7 (≈ 12.8 µM) | 14 (≈ 25.6 µM) | 27 (≈ 49.5 µM) | 56 (≈ 103 µM) | 7 (≈ 12.8 µM) | – | – | – | MIC (E. coli ATCC 25922): 100 µg/mL (≈ 183 µM) |
